Assay results from patent US20050075494A1, “Isolated nucleic acid molecules encoding a human and mouse g protein-coupled receptor-gpr54: encoded proteins, cells transformed therewith and uses thereof” (priority 2000, published 2005).

How the values were obtained:
Format in all cases: cell-based
[1] = target: T1, Human GPR54 receptor (Homo sapiens, UniProt Q969F8, L364H); assay: aequorin assay in HEK293/aeq17 cells expressing human GPR54; conditions: aequorin luminescence, 5-fold serial dilutions, triplicates
T1 construct: Clones containing full-length GPR54 were thus identified; expressed in transfected cells
Protocol: The HEK293/aeq17 cell line was licensed in from NIH (Button and Brownstein, 1993, Cell Calcium, 14:663-671). The cells were grown in Dulbecco's Modified Medium (MEM, GIBCO-BRL, Gaithersburg, Md., USA)+10% fetal bovine serum (heat inactivated), 1 mM sodium pyruvate, 500 ug/ml Geneticin, 100 ug/ml streptomycin, 100 units/ml penicillin. […] Puromycin-resistant clones were selected and bulk stables were used for further analysis.
For the aequorin assay, cell were washed once with DMEM+0.1% fetal bovine serum, and then charged for one hour at 37° C. 15% CO2 in DMEM containing 8 uM coelenterazine cp (Molecular Probes, Eugene, Oreg., USA) and 30 uM glutathione. […] The cell density was determined by counting with a hemacytometer and adjusted to 500,000 cells/ml in ECB.
The neuropeptides were diluted in ECB into 2× concentrates using 5-fold serial dilutions, and aliquoted into assay plates in triplicates at 0.1 ml/well. The cell suspension was injected at 0.1 ml/well, read and integrated for a total of 400 readings using a luminometer (Luminoskan Ascent, Labsystems Oy, Helsinki, Finland). Data was analyzed using the software GraphPad Prism Version 3.0 (GraphPad Software, Inc., San Diego, Calif., USA).

[2] = target: T2, rat GPR54 (Rattus norvegicus, UniProt Q924U1); assay: β-lactamase reporter enzyme assay in CHO-NPAT-bla cells expressing rat GPR54
T2 construct: expressed in transfected cells
Protocol: The full-length coding sequence of rat GPR54 was sub-cloned into the expression vector pIRESpuromycin (Clontech, Palo Alto, Calif., USA) in accordance with the manufactures directions. This GPR54 plasmid was transfected into Aurora's CHO-NPAT-bla cells using the reagent Lipofectamine 2000 (GIBCO-BRL, Gaithersburg, Md., USA). Puromycin-resistant bulk stables expressing rat GPR54 were selected and used for screening for agonist.
β-lactamase assays were carried as described by (Zlokarnik et al., 1998, Quantitation of transcription and clonal selection of single living cells with beta-lactamase as reporter. Science 1998, 279:84-88). All peptides were from Phoenix Pharmaceuticals. […] Four (4) hours after the addition of ligands, cells were loaded with dye and measured for fluorescence approximately 45 minutes later.
An extremely sensitive transcription-based assay is disclosed in Zlokarnik et al., 1998, Science 279:84-88 (Zlokarnik) and also in U.S. Pat. No. 5,741,657, both of which are incorporated by reference in their entirety herein. […] This increase in β-lactamase is measured by treating the cells with a cell-permeable dye that is a substrate for cleavage by β-lactamase. […] In the intact dye, the two fluorescent moieties are physically linked, and thus close enough to one another that fluorescence resonance energy transfer FRET) can take place between them. […]

[3] = system: Control cells (cells that do not express rat GPR54); assay: β-lactamase reporter assay in control cells; conditions: data not shown
Protocol: β-lactamase assays were carried as described by (Zlokarnik et al., 1998, Quantitation of transcription and clonal selection of single living cells with beta-lactamase as reporter. Science 1998, 279:84-88). All peptides were from Phoenix Pharmaceuticals. Cells were seeded two days prior to assay. The day before being assayed, cells were changed to serum-free media. Four (4) hours after the addition of ligands, cells were loaded with dye and measured for fluorescence approximately 45 minutes later.
These peptides were then individually tested against GPR54-expressing cells.

T2 sequence (Q924U1 whole entry): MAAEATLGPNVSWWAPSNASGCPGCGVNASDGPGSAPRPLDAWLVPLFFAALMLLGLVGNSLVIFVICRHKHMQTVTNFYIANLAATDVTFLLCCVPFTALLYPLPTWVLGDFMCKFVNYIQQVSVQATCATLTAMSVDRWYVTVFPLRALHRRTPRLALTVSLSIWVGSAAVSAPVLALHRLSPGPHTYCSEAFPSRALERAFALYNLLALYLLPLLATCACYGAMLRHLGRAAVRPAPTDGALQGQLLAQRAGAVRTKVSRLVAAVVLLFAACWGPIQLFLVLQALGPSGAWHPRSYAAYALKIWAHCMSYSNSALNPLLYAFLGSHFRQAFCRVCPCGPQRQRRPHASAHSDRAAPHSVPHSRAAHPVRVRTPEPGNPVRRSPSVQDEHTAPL
T1 sequence (Q969F8 whole entry L364H): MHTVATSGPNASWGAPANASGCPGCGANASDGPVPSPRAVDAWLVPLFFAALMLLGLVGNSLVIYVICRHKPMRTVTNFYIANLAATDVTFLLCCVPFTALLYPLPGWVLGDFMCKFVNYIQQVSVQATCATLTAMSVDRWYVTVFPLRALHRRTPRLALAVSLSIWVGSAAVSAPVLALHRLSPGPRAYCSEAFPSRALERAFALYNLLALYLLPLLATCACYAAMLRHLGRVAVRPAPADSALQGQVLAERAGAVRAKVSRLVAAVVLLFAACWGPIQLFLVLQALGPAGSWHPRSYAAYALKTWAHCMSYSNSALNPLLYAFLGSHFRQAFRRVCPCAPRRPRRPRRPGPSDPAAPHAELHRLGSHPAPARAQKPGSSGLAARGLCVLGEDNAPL

Row | response of cells expressing Human GPR54 receptor (FIG. 9) [1] | activation of rat GPR54 in the primary screening ([2]; primary agonist screening, cells expressing rat GPR54, β-lactamase readout 4 hours after ligand addition) | Substance | dose-response activation of rat GPR54 (FIG. 8) ([2]; peptides individually tested against GPR54-expressing cells) | response of control cells [3]
1 | robust, dose-dependent response | – | antho-RW amide II | – | –
2 | robust, dose-dependent response | activate rat GPR54 specifically | antho-RWamide I | activated rat GPR54 in a dose-dependent manner | no response
